Paper PMC10056443, “Derivatives of Amaryllidaceae Alkaloid Ambelline as Selective Inhibitors of Hepatic Stage of Plasmodium berghei Infection In Vitro” (Pharmaceutics, 2023)
Read-outs that look alike come from different tables or passages of the source.

How the values were obtained:
Huh-7 cell line = assay: Huh-7 cell confluency by alamarBlue assay during hepatic-stage test; type: cell-based
Experimental: (§1) Activity against the hepatic stage of P. berghei infection was assessed using the human hepatoma cell line Huh-7 (deposited at the Japanese Collection of Research Bioresources under JCRB0403). The protocol was previously comprehensively described by Prudêncio et al. and by Ploemen et al.. Briefly, cell culture medium consisted of 1640 RPMI medium supplemented with 10% v/v fetal calf serum, 1% v/v L-glutamine, 1% v/v nonessential amino acids, 1% v/v penicillin/streptomycin, and 10 mM HEPES, pH 7. Cells were seeded in 96-well plates at a density of 1 × 10^4 cells per well in 100 µL of culture medium and incubated at 37 °C with 5% CO2 for approximately 18 h. […] The culture medium was substituted by infection medium with diluted compounds 1 hour in advance of infection. Luciferase-expressing P. berghei sporozoites (PbA-LuciGFPcon spz) were freshly obtained through the dissection of salivary glands from infected female Anopheles stephensi mosquitoes. Sporozoites were added to the cells at 1:1 ratio, i.e., 1 × 10^4 sporozoites were added per well, and then subjected to centrifugation at 1800× g for 5 min. The plate was then incubated for 46 h at 37 °C with 5% CO2, at which time Huh-7 cell confluency was indirectly assessed by the alamarBlue assay (Invitrogen, Waltham, MA, USA), as reported in the manufacturer’s protocol. Parasite load was assessed 48 h post-infection by a bioluminescence assay, as reported by the manufacturer (Biotium, Fremont, CA, USA). GraphPad Prism 8 (GraphPad Software, Inc., La Jolla, CA, USA) was used to obtain IC50 values using nonlinear regression analysis to fit the dose-response curves normalized results.

[1] = tested on: hepatic stage of P. berghei; assay: In vitro activity against P. berghei hepatic stages (luciferase-expressing sporozoites in Huh-7 cells, bioluminescence); type: cell-based, Plasmodium berghei; settings: Plasmodium berghei; for activity at 1 µM / activity at 10 µM: DMSO = 100, read-out: INFECTION Ø screening
Experimental: as §1, with “Briefly, cell culture medium consisted of 1640 RPMI medium supplemented with 10% v/v fetal calf serum, 1% v/v L-glutamine, 1% v/v nonessential amino acids, 1% v/v penicillin/streptomycin, and 10 mM HEPES, pH 7.” left out

HepG2 cells = assay: Cytotoxicity assessment in vitro (MTT assay); type: cell-based
Experimental: (§2) HepG2 cells of human hepatocellular carcinoma (ATCC HB-8065; passage 20–25), purchased from Health Protection Agency Culture Collections (ECACC, Salisbury, UK), were cultured in Minimum Essential Medium Eagle supplemented with 10% v/v fetal bovine serum and 1% v/v L-glutamine solution (Sigma-Aldrich, St. Louis, MO, USA) at 37 °C in a humidified atmosphere containing 5% CO2. For passaging, the cells were treated with trypsin/EDTA (Sigma-Aldrich, St. Louis, MO, USA) at 37 °C and then harvested. For the cytotoxicity evaluation, the cells treated with the test substances were used, while untreated HepG2 cells served as a control group. The cells were seeded in a 96-well plate at a density of 1 × 10^4 cells per well and incubated for 24 h. All tested compounds were dissolved in DMSO to prepare 10 mM stock solutions and diluted to the desired concentration just before the cell treatment. Cytotoxicity of all studied derivatives was screened at 10 μM concentration, and all samples were measured in triplicates. Positive and negative controls were also included. Plates were incubated for 24 h in a humidified atmosphere containing 5% CO2 at 37 °C. After the incubation, a solution of thiazolyl blue tetrazolium bromide (Sigma-Aldrich, St. Louis, MO, USA) in RPMI 1640 medium without phenol red (BioTech, Prague, Czech Republic) was added and incubated for 3 h in a humidified atmosphere containing 5% CO2 at 37 °C. Afterwards, formazan crystals were dissolved in DMSO, and the absorbance of samples was recorded at 570 nm (Synergy Neo2 Multi-Mode Reader NEO2SMALPHAB; BioTek, Winooski, VT, USA).

[2] = Cytotoxicity assessment in vitro (MTT assay); type: cell-based; settings: human
Experimental: as §2

[3] = tested on: P. falciparum NF54 ring-stage synchronized cultures; assay: In vitro activity against P. falciparum blood stages (flow cytometry, SYBR green I); type: cell-based, Plasmodium falciparum; settings: Control = 7.76333, 48 h
Experimental: Activity against the blood stage of P. falciparum infection was assessed by flow cytometry analysis following the incubation of either test compounds or the drug vehicle (DMSO) with ring-stage synchronized parasite cultures, as previously described. Stock solutions of the test compounds, as well as of the positive control compound chloroquine, were prepared in DMSO and diluted to test concentrations in complete malaria culture medium (CMCM), i.e., 1640 RPMI medium supplemented with 25 mM HEPES, 2.4 mM L-glutamine, 50 µg/mL gentamicin, 0.5% w/v Albumax, 11 mM glucose, 1.47 mM hypoxanthine, and 37.3 mM NaHCO3. Samples at tested concentration were then incubated with ring-stage synchronized cultures of P. falciparum NF54 at 2.5% hematocrit and at approximately 1% parasitemia in 96-well plates at 37 °C in a 5% CO2 and 5% O2 atmosphere. Forty-eight hours post incubation, parasite load was assessed by flow cytometry, upon staining with the DNA-specific dye SYBR green I. Approximately 100,000 events were analyzed in each flow cytometry measurement.

[4] = at 1 μM, DMSO = 100, in % (unit assumed)
[5] = at 10 μM, DMSO = 100, in % (unit assumed)

COc1c2c(cc3c1OCO3)[C@]13C=C[C@H](OC)C[C@H]1N(C2)C[C@H]3OC(=O)c1cccc(C)c1 [28f, 11-O-(3-Methylbenzoyl)ambelline]
CELL CONFLUENCY Ø screening (Huh-7 cell line; human, 46 h, 1 µM, pH 7): 118
CELL CONFLUENCY Ø screening (Huh-7 cell line; human, 46 h, 10 µM, pH 7): 93.35
activity at 1 µM ([1]; Huh-7, 48 h): 15.1%
activity at 10 µM ([1]; Huh-7, 48 h): 0.306%
IC50 ([1]; Huh-7, replicate 1, unit (Table 1: µM), read-out: Antiplasmodial activity - IC50 determination, 1. measurement): 0.185 µM
IC50 ([1]; Huh-7, replicate 2, unit (Table 1: µM), read-out: Antiplasmodial activity - IC50 determination, 2. measurement): 0.41 µM
IC50 ([1]; Huh-7, replicate 3, unit (Table 1: µM), read-out: Antiplasmodial activity - IC50 determination, 3. measurement): 0.357 µM
IC50 ([1]; hepatic stage, Huh-7 cells, parasite load 48 h post-infection, read-out: IC50 P. berghei): 0.317 ± 0.118 µM
1. screening of cytotoxic potential, HepG2 cell line (HepG2 cells; human, 24 h, 10 µM): 76.64
2. screening of cytotoxic potential, HepG2 cell line (HepG2 cells; human, 24 h, 10 µM): 74.3
3. screening of cytotoxic potential, HepG2 cell line (HepG2 cells; human, 24 h, 10 µM): 74.27
Ø screening, HepG2 (sheet Graphs) (HepG2 cells; human, 24 h, 10 µM): 75.07
viability at 24 h, 10 µM [2]: 75 ± 1%

CCC(=O)OC1CN2Cc3cc4c(cc3C13C=CC(OC)CC23)OCO4 (stereo not drawn) [29a, 11-O-propionylhaemanthamine]
CELL CONFLUENCY Ø screening (Huh-7 cell line; [4]): 95.58
CELL CONFLUENCY Ø screening (Huh-7 cell line; [5]): 90.95
activity at 1 µM ([1]; Huh-7, 48 h): 87.6%
activity at 10 µM ([1]; Huh-7, 48 h): 71.9%

COC1C=CC23c4cc5c(cc4CN(CC2OC(=O)C(C)C)C3C1)OCO5 (stereo not drawn) [29b, 11-O-isobutanoylhaemanthamine]
CELL CONFLUENCY Ø screening (Huh-7 cell line; [4]): 106.7
CELL CONFLUENCY Ø screening (Huh-7 cell line; [5]): 111.9
activity at 1 µM ([1]; Huh-7, 48 h): 71.4%
activity at 10 µM ([1]; Huh-7, 48 h): 70.6%

COC1C=CC23c4cc5c(cc4CN(CC2OC(=O)c2cccc(C)c2)C3C1)OCO5 (stereo not drawn) [29c, 11-O-(3-methylbenzoyl)haemanthamine]
CELL CONFLUENCY Ø screening (Huh-7 cell line; human, 46 h, 1 µM, pH 7): 124.3
CELL CONFLUENCY Ø screening (Huh-7 cell line; human, 46 h, 10 µM, pH 7): 135.7
activity at 1 µM ([1]; Huh-7, 48 h): 96.8%
activity at 10 µM ([1]; Huh-7, 48 h): 28.3%

COC1C=CC23c4cc5c(cc4CN(CC2OC(=O)c2ccc(C)cc2)C3C1)OCO5 (stereo not drawn) [29d, 11-O-(4-methylbenzoyl)haemanthamine]
CELL CONFLUENCY Ø screening (Huh-7 cell line; human, 46 h, 1 µM, pH 7): 120.6
CELL CONFLUENCY Ø screening (Huh-7 cell line; human, 46 h, 10 µM, pH 7): 113.7
activity at 1 µM ([1]; Huh-7, 48 h): 47.8%
activity at 10 µM ([1]; Huh-7, 48 h): 29%

COc1ccccc1C(=O)OC1CN2Cc3cc4c(cc3C13C=CC(OC)CC23)OCO4 (stereo not drawn) [29e, 11-O-(2-methoxybenzoyl)haemanthamine]
CELL CONFLUENCY Ø screening (Huh-7 cell line; human, 46 h, 1 µM, pH 7): 124.9
CELL CONFLUENCY Ø screening (Huh-7 cell line; human, 46 h, 10 µM, pH 7): 167.5
activity at 1 µM ([1]; Huh-7, 48 h): 67.6%
activity at 10 µM ([1]; Huh-7, 48 h): 28.8%

COc1cccc(C(=O)OC2CN3Cc4cc5c(cc4C24C=CC(OC)CC34)OCO5)c1 (stereo not drawn) [29f, 11-O-(3-methoxybenzoyl)haemanthamine]
CELL CONFLUENCY Ø screening (Huh-7 cell line; [4]): 130.9
CELL CONFLUENCY Ø screening (Huh-7 cell line; [5]): 134.6
activity at 1 µM ([1]; Huh-7, 48 h): 76.1%
activity at 10 µM ([1]; Huh-7, 48 h): 29.8%

COc1ccc(C(=O)OC2CN3Cc4cc5c(cc4C24C=CC(OC)CC34)OCO5)cc1 (stereo not drawn) [29g, 11-O-(4-methoxybenzoyl)haemanthamine]
CELL CONFLUENCY Ø screening (Huh-7 cell line; human, 46 h, 1 µM, pH 7): 95.31
CELL CONFLUENCY Ø screening (Huh-7 cell line; human, 46 h, 10 µM, pH 7): 88.51
activity at 1 µM ([1]; Huh-7, 48 h): 49.1%
activity at 10 µM ([1]; Huh-7, 48 h): 42.6%

COc1ccc(C(=O)OC2CN3Cc4cc5c(cc4C24C=CC(OC)CC34)OCO5)cc1OC (stereo not drawn) [29h, 11-O-(3,4-dimethoxybenzoyl)haemanthamine]
CELL CONFLUENCY Ø screening (Huh-7 cell line; human, 46 h, 1 µM, pH 7): 101.7
CELL CONFLUENCY Ø screening (Huh-7 cell line; human, 46 h, 10 µM, pH 7): 100.3
activity at 1 µM ([1]; Huh-7, 48 h): 90.4%
activity at 10 µM ([1]; Huh-7, 48 h): 46%

COc1cc(OC)cc(C(=O)OC2CN3Cc4cc5c(cc4C24C=CC(OC)CC34)OCO5)c1 (stereo not drawn) [29i, 11-O-(3,5-dimethoxybenzoyl)haemanthamine]
CELL CONFLUENCY Ø screening (Huh-7 cell line; human, 46 h, 1 µM, pH 7): 123.1
CELL CONFLUENCY Ø screening (Huh-7 cell line; human, 46 h, 10 µM, pH 7): 120.8
activity at 1 µM ([1]; Huh-7, 48 h): 64%
activity at 10 µM ([1]; Huh-7, 48 h): 27.5%

COC1C=CC23c4cc5c(cc4CN(CC2OC(=O)c2cccc([N+](=O)[O-])c2)C3C1)OCO5 (stereo not drawn) [29j, 11-O-(3-nitrobenzoyl)haemanthamine]
CELL CONFLUENCY Ø screening (Huh-7 cell line; human, 46 h, 1 µM, pH 7): 100.8
CELL CONFLUENCY Ø screening (Huh-7 cell line; human, 46 h, 10 µM, pH 7): 94.5
activity at 1 µM ([1]; Huh-7, 48 h): 78.2%
activity at 10 µM ([1]; Huh-7, 48 h): 48.5%

COC1C=CC23c4cc5c(cc4CN(CC2OC(=O)c2ccc([N+](=O)[O-])cc2)C3C1)OCO5 (stereo not drawn) [29k, 11-O-(4-nitrobenzoyl)haemanthamine]
CELL CONFLUENCY Ø screening (Huh-7 cell line; [4]): 104.8
CELL CONFLUENCY Ø screening (Huh-7 cell line; [5]): 91.29
activity at 1 µM ([1]; Huh-7, 48 h): 63.6%
activity at 10 µM ([1]; Huh-7, 48 h): 71%

CCN(CC)CCCC(C)Nc1ccnc2cc(Cl)ccc12 (stereo not drawn) [CQ, chloroquine, reference compound]
Ø screening, blood stage parasite load ([3]; at 10 nM): 8.54
Ø screening, blood stage parasite load ([3]; at 500 nM): 2.057
Ø screening, blood stage parasite load ([3]; at 100 nm): 2.187

COc1cccc2c1C(=O)c1c(O)c3c(c(O)c1C2=O)C[C@@](O)(C(=O)CO)C[C@@H]3O[C@H]1C[C@H](N)[C@H](O)[C@H](C)O1 [Doxorubicine, reference compound]
Ø screening, HepG2 (sheet Graphs) (HepG2 cells; c = 10 μM, DMSO = 100, in %): 65.91
1. screening of cytotoxic potential, HepG2 cell line (HepG2 cells; c = 10 μM, replicate 1, in %): 62.5
2. screening of cytotoxic potential, HepG2 cell line (HepG2 cells; c = 10 μM, replicate 2, in %): 75.09
3. screening of cytotoxic potential, HepG2 cell line (HepG2 cells; c = 10 μM, replicate 3, in %): 60.13
viability at 24 h, 10 µM ([2]; HepG2 cells, c = 10 µM, 24 h, MTT, read-out: HepG2 % of cell viability compared to non-treated control (100%)): 66 ± 8%

COc1cc(NC(C)CCCN)c2ncccc2c1 (stereo not drawn) [Primaquine, reference compound]
IC50 ([1]; Huh-7, 48 h, read-out: IC50 P. berghei): 5.74 ± 0.86 µM
